Measurements from publication PMC9986876, “Prediction of Antileishmanial Compounds: General Model, Preparation, and Evaluation of 2-Acylpyrrole Derivatives” (Journal of Chemical Information and Modeling, 2022).

Columns and labels:
[1] = test system: L. amazonensis (MHOM/Br/79/Maria) promastigotes; test: In vitro promastigote susceptibility assay (resazurin); format: cell-based; details: for SI (selectivity index, SI = CC50/IC50): CC50 J774 / IC50 L. amazonensis promastigotes; for IC50: Leishmania amazonensis; for IC50 / IC50 ± SD: L. amazonensis promastigotes, 48 h at 26 °C, triplicate, N/A = not active at 100 μg/mL
Procedure: (§1) The following species of Leishmania were used: L. donovani (MHOM/IN/80/DD8) was purchased (ATCC, USA) and L. amazonensis (MHOM/Br/79/Maria) was kindly provided by Prof. Alfredo Toraño (Instituto de Salud Carlos III, Madrid). Promastigotes were cultured in Schneider’s insect medium supplemented with 10% heat-inactivated fetal bovine serum (FBS) and 1000 U/L of penicillin plus 100 mg/L of streptomycin in 25 mL culture flasks at 26 °C. […] New samples of the compounds have been prepared according to the protocol described above, and subsequently solutions of the chemical compound to be assayed have been dissolved in DMSO at 50 mg/mL. […] Growth control and signal-to-noise control were also included. The final solvent (DMSO) concentrations never exceeded 0.5% (v/v) warranting no effect on parasite proliferation or morphology. After 48 h at 26 °C, 20 μL of a 2.5 mM resazurin solution was added to each well and the plates were returned to the incubator for another 3 h. […] Growth inhibition (%) was calculated by 100 – [(RFU treated wells – RFU signal-to-noise)/(RFU untreated – RFU signal-to-noise) × 100]. All tests were carried out in triplicate. Miltefosine (Sigma-Merck, Madrid, Spain) was used as the reference drug and was evaluated under the same conditions. […] The selectivity index (SI) was calculated as the ratio between cytotoxicity (CC50) and activity against parasites (IC50).

[2] = test system: L. donovani (MHOM/IN/80/DD8) promastigotes; test: as above; format: cell-based; details: for IC50: Leishmania donovani, L. donovani promastigotes, 48 h at 26 °C, triplicate, N/A = not active at 100 μg/mL; for SI (selectivity index, SI = CC50/IC50): CC50 J774 / IC50 L. donovani promastigotes
Procedure: as §1

[3] = Cytotoxicity assay on macrophages (resazurin); format: cell-based, BALB/c mice; details: mouse, J774 macrophages, values marked e correspond to 100 μg/mL, the higher dose tested
Procedure: The assay was carried out as previously described.[30] J774 macrophages cell lines were seeded (5 × 10^4 cells/well) in 96-well flat-bottom microplates with 100 μL of RPMI 1640 medium. The cells were allowed to attach for 24 h at 37 °C and 5% CO2, and the medium was replaced by different concentrations of the compounds in 200 μL of medium and exposed for another 24 h. Growth controls and signal-to-noise were also included. Afterward, a volume of 20 μL of 2.5 mM resazurin solution was added, and plates were returned to the incubator for another 3 h to evaluate cell viability. The reduction of resazurin was determined by fluorometry as in the promastigote assay. Each concentration was assayed three times.

L. major promastigotes = details: in vitro; cited from earlier work
[4] = test system: L. amazonensis amastigotes; test: In vitro intracellular amastigote susceptibility assay in J774 macrophages; format: cell-based; details: Leishmania amazonensis; L. amazonensis intracellular amastigotes in J774, 48 h; N/A = not active at 100 μg/mL
Procedure: The following species of Leishmania were used: L. donovani (MHOM/IN/80/DD8) was purchased (ATCC, USA) and L. amazonensis (MHOM/Br/79/Maria) was kindly provided by Prof. Alfredo Toraño (Instituto de Salud Carlos III, Madrid). Promastigotes were cultured in Schneider’s insect medium supplemented with 10% heat-inactivated fetal bovine serum (FBS) and 1000 U/L of penicillin plus 100 mg/L of streptomycin in 25 mL culture flasks at 26 °C. The assay was carried out as previously described.[29] Briefly, 5 × 10^4 J774 macrophages and stationary promastigotes in a 1:5 ratio were seeded in each well of a microtiter plate, suspended in 200 μL of culture medium, and incubated for 24 h at 33 °C in a 5% CO2 chamber. After this first incubation, the temperature was increased up to 37 °C for another 24 h. Thereafter, cells were washed several times in culture medium by centrifugation at 1.500g for 5 min in order to remove free non-internalized promastigotes. Finally, the supernatant was replaced by 200 μL/well of culture medium containing 2-fold serial dilutions of the test compounds as in promastigotes assay. Growth control and signal-to-noise were also included. Following incubation for 48 h at 37 °C and 5% CO2, the culture medium was replaced by 200 μL/well of the lysis solution (RPMI-1640 with 0.048% HEPES and 0.01% SDS) and incubated at room temperature for 20 min. Thereafter, the plates were centrifuged at 3.500g for 5 min and the lysis solution was replaced by 200 μL/well of Schneider’s insect medium. The culture plates were then incubated at 26 °C for another 4 days to allow transformation of viable amastigotes into promastigotes and proliferation. Afterward, 20 μL/well of 2.5 mM resazurin was added and incubated for another 3 h. Finally, fluorescence emission was measured and IC50 was estimated as described above. All tests were carried out in triplicate. Miltefosine (Sigma-Merck, Madrid, Spain) was used as the reference drug and was evaluated under the same conditions. The IC50 and SI were calculated as in the previous section.

[5] = macrophages J774, 24 h exposure, Table 2

SMILES | SI (selectivity index, SI = CC50/IC50) [1] | IC50 [1] | IC50 [2] | CC50 at 24 h [3, 5] [µM] | IC50 (L. major promastigotes) [µM] | SI (selectivity index, SI = CC50/IC50) [2] | IC50 ± SD [1] | IC50 [4] [µM] | CC50 at 24 h ([3]; macrophages J774, Table 3 (amastigote assay table)) [µM]
Cc1cccnc1-n1cccc1C(=O)c1ccccc1 [5ba] | >2.50 | 153 ± 21.6 µM | > 100 µg/mL | > 381 |  |  |  |  | 
CN1CCC(c2cc(-c3ccncc3)c(-c3ccc(F)cc3)[nH]2)CC1 [compound 1] |  |  |  |  | 2.1 |  |  |  | 
O=C(c1ccc([N+](=O)[O-])cc1)c1cccn1-c1ncccn1 [5ah] |  | > 100 µg/mL | > 100 µg/mL | > 340 |  |  |  |  | 
Cc1cccnc1-n1cccc1C(=O)c1ccn(C)c1 [5br] | >1.66 | 227 ± 13.4 µM | > 100 µg/mL | > 377 |  |  |  |  | 
Cc1cccnc1-n1cccc1C(=O)c1ccc(Br)cc1 [5bf] | >3.14 | 38.1 ± 0.85 µM | 19.9 ± 1.47 µM | 120 ± 37.4 |  | >6.01 |  |  | 
O=C(c1ccc(F)cc1)c1cccn1-c1ncccn1 [5ad] |  | > 100 µg/mL | > 100 µg/mL | 270 ± 26.3 |  |  | inactive |  | 
COc1cc(OC)cc(C(=O)c2cccn2-c2ncccc2C)c1 [5bj] | >1.53 | 71.1 ± 7.81 µM | 43.5 ± 0.59 µM | 108 ± 5.76 |  |  |  |  | 
Cc1ccc2ncc(/C=C/C(=O)c3cc[nH]c3)cc2c1 [4a] |  |  |  |  | 1.29 |  |  |  | 
N#Cc1ccc(C(=O)c2cccn2-c2ncccn2)cc1 [5ag] |  | > 100 µg/mL | > 100 µg/mL | > 365 |  |  |  |  | 
Cc1cccnc1-n1cccc1C(=O)c1ccc(C#N)cc1 [5bg] | >1.81 | 192 ± 12 µM | 315 ± 60.8 µM | > 348 |  | >1.10 |  |  | 
O=C(c1cc(C(F)(F)F)cc(C(F)(F)F)c1)c1cccn1-c1ncccn1 [5am] | >4.53 | 57.34 ± 0.25 µM | 199 ± 25.4 µM | > 260 |  | >1.31 |  |  | 
CN1CCC(c2cc(-c3ccc(F)cc3)c(-c3ccncc3)[nH]2)CC1 [compound 2] |  |  |  |  | 0.6 |  |  |  | 
Cc1ccc(C(=O)c2cccn2-c2ncccc2C)cc1 [5bb] | >2.43 | 149 ± 3.84 µM | 120 ± 15 µM | > 362 |  | >3.02 |  |  | 
O=C(c1ccc(C(F)(F)F)cc1)c1cccn1-c1ncccn1 [5ai] | >3.13 | 48 ± 1.61 µM | 42.8 ± 0.61 µM | 150 ± 49.4 |  | >3.51 |  |  | 
Cc1cccnc1-n1cccc1C(=O)c1ccoc1 [5bs] |  | > 100 µg/mL | > 100 µg/mL | > 396 |  |  |  |  | 
O=C(c1ccc(Cl)cc1)c1cccn1-c1ncccn1 [5ae] | >3.01 | 117 ± 10.9 µM | 190 ± 6.76 µM | > 352 |  | >1.86 |  |  | 

SMILES | SI (selectivity index, SI = CC50/IC50) [1] | IC50 [1] | IC50 [2] | CC50 at 24 h [3, 5] [µM] | IC50 (L. major promastigotes) [µM] | SI (selectivity index, SI = CC50/IC50) [2] | IC50 ± SD [1] | IC50 [4] [µM] | CC50 at 24 h ([3]; macrophages J774, Table 3 (amastigote assay table)) [µM]
COc1cc(C(=O)c2cccn2-c2ncccn2)cc(OC)c1OC [5ak] |  | > 100 µg/mL | > 100 µg/mL | 87.3 ± 7.37 |  |  | inactive |  | 
Cc1cccnc1-n1cccc1C(=O)c1cccc(OCc2ccccc2)c1 [5bp] | >1.31 | 208 ± 23.6 µM | 184 ± 8.67 µM | > 357 |  | >1.47 |  |  | 
O=C(c1ccc2ccccc2c1)c1cccn1-c1ncccn1 [5an] | >3.12 | 36.1 ± 1.23 µM | 58.5 ± 3.34 µM | 113 ± 39.2 |  | >1.93 |  |  | 
COc1ccc(C(=O)c2cccn2-c2ncccc2C)cc1 [5bo] | >1.53 | 224 ± 14.7 µM | 173 ± 60.3 µM | > 342 |  | >1.98 |  |  | 
COc1ccc(C(=O)c2cccn2-c2ncccn2)c(OC)c1 [5al] |  | > 100 µg/mL | > 100 µg/mL | 224 ± 46.9 |  |  |  |  | 
COc1ccc2ncc(/C=C/C(=O)c3cc[nH]c3)cc2c1 [4b] |  |  |  |  | 1.18 |  |  |  | 
Cc1cccnc1-n1cccc1C(=O)c1ccc(Cl)cc1 [5be] | >2.89 | 51.5 ± 4.72 µM | 20.7 ± 0.98 µM | 149 ± 19.3 |  | >7.19 |  |  | 
COc1cc(OC)cc(C(=O)c2cccn2-c2ncccn2)c1 [5aj] | >2.71 | 32.5 ± 0.64 µM | 211 ± 32.8 µM | 88.3 ± 3.36 |  | >0.42 |  |  | 
CCCCCCCCCCCCCCCCOP(=O)([O-])OCC[N+](C)(C)C [miltefosine, reference compound] |  | 30.7 ± 8.8 µM | 0.24 ± 0.02 µM | 55.4 ± 4.19 |  |  |  | 47.6 ± 7.04 | 136 ± 10.2
O=C(c1ccccc1)c1cccn1-c1ncccn1 [5aa] | >1.55 | 260 ± 40.7 µM | > 100 µg/mL | > 401 |  |  |  |  | 
COc1cc(C(=O)c2cccn2-c2ncccc2C)cc(OC)c1OC [5bk] |  | > 100 µg/mL | > 100 µg/mL | 284 |  |  | inactive |  | 
Cc1cccnc1-n1cccc1C(=O)c1ccn(C(C)(C)C)c1 [5bq] | >1.56 | 209 ± 4.69 µM | 92.8 ± 7.68 µM | > 325 |  |  |  |  | 
Cc1ccc(C(=O)c2cccn2-c2ncccn2)cc1 [5ab] |  | > 100 µg/mL | > 100 µg/mL | > 381 |  |  |  |  | 
Cc1cccnc1-n1cccc1C(=O)c1ccc(F)cc1 [5bd] |  | 16.9 ± 0.73 µM | 7.78 ± 0.27 µM | 137 ± 36.4 |  | >23.15 |  |  | 
CC(C)(C)c1ccc(C(=O)c2cccn2-c2ncccn2)cc1 [5ac] | >2.77 | 32.9 ± 0.74 µM | 58.5 ± 7.04 µM | 91 ± 6.55 |  | >1.55 |  |  | 
